SMILES strings stand for the structures. Bounds are passed on as bounds.

The first assay has as its target human PDE1B enzyme (Homo sapiens (Human), UniProt Q01064). Put plainly: IMAP TR-FRET PDE1B enzymatic assay. The assay is classed as biochemical. Conditions: negative log of half-maximal molar inhibitory concentration; 200 nM FAM-cAMP; values given as bins. An outline of the steps:
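Full-length GST-tagged human PDE1B (250 pg/well) in IMAP BSA buffer with 10 U/ml calmodulin and 2.5 mM CaCl2; compound pre-incubated 5 min at room temperature, then 200 nM (final) FAM-cAMP for 30 min. IMAP binding reagent/Tb added, 1 h; TR-FRET 520/490 ratio read. IC50 from sigmoidal dose-response fit.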
On to `Cc1cnc(C2CCN(C(=O)c3c(C)oc4ncnc(NC5(C)CC5)c34)CC2)nc1` [Example 360, 6-Methyl-N-(1-methylcyclopropyl)-5-[4-(5-methylpyrimidin-2-yl)piperidine-1-carbonyl]furo[2,3-d]pyrimidin-4-amine], for which the “PDE1b (pIC50)” value is reported as >8.

Consider `COc1cccc(C2CCN(C(=O)c3c(C)oc4ncnc(NC5(C)CC5)c34)C2)c1` (centres unmarked) [Example 361, 5-[3-(3-Methoxyphenyl)pyrrolidine-1-carbonyl]-6-methyl-N-(1-methylcyclopropyl)furo[2,3-d]pyrimidin-4-amine], for which the “PDE1b (pIC50)” value was >8.

Regarding `COc1cnc(C2CCN(C(=O)c3c(C)oc4ncnc(NC5(C)CC5)c34)CC2)cn1` [Example 365, 5-[4-(5-Methoxypyrazin-2-yl)piperidine-1-carbonyl]-6-methyl-N-(1-methylcyclopropyl)furo[2,3-d]pyrimidin-4-amine], the “PDE1b (pIC50)” value is given as >8.

In the case of `COc1ccc(C2CCN(C(=O)c3c(C)oc4ncnc(NC5(C)CC5)c34)CC2)nc1` [Example 366, 5-[4-(5-Methoxypyridin-2-yl)piperidine-1-carbonyl]-6-methyl-N-(1-methylcyclopropyl)furo[2,3-d]pyrimidin-4-amine], the “PDE1b (pIC50)” value is given as >8.

With `COc1cccc(C2CCN(C(=O)c3c(C)oc4ncnc(NC5(C)CC5)c34)C2)n1` (centres unmarked) [Example 367, 5-[3-(6-Methoxypyridin-2-yl)pyrrolidine-1-carbonyl]-6-methyl-N-(1-methylcyclopropyl)furo[2,3-d]pyrimidin-4-amine], the “PDE1b (pIC50)” value was >8.

For the compound `Cc1oc2ncnc(NC3(C)CC3)c2c1C(=O)N1CCC(c2nccc(C3CC3)n2)CC1` [Example 368, 5-[4-(4-Cyclopropylpyrimidin-2-yl)piperidine-1-carbonyl]-6-methyl-N-(1-methylcyclopropyl)furo[2,3-d]pyrimidin-4-amine], the “PDE1b (pIC50)” value was >8.

As for `CCCc1ccnc(C2CCN(C(=O)c3c(C)oc4ncnc(NC5(C)CC5)c34)CC2)n1` [Example 369, 6-Methyl-N-(1-methylcyclopropyl)-5-[4-(4-propylpyrimidin-2-yl)piperidine-1-carbonyl]furo[2,3-d]pyrimidin-4-amine], the “PDE1b (pIC50)” value was >8.

For the compound `COc1cnc(C2CCN(C(=O)c3c(C)oc4ncnc(NC5(C)CC5)c34)CC2)nc1` [Example 370, 5-[4-(5-Methoxypyrimidin-2-yl)piperidine-1-carbonyl]-6-methyl-N-(1-methylcyclopropyl)furo[2,3-d]pyrimidin-4-amine], the “PDE1b (pIC50)” value is listed as >8.

In the case of `Cc1oc2ncnc(NC3(C)CC3)c2c1C(=O)N1CCC(c2cccc(Br)n2)C1` (centres unmarked) [Example 372, 5-[3-(6-Bromopyridin-2-yl)pyrrolidine-1-carbonyl]-6-methyl-N-(1-methylcyclopropyl)furo[2,3-d]pyrimidin-4-amine], the “PDE1b (pIC50)” value is >8.

For the compound `Cc1oc2ncnc(NC3(C)CC3)c2c1C(=O)N1CCC(c2ccc(Br)cn2)C1` (centres unmarked) [Example 373, 5-[3-(5-Bromopyridin-2-yl)pyrrolidine-1-carbonyl]-6-methyl-N-(1-methylcyclopropyl)furo[2,3-d]pyrimidin-4-amine], the “PDE1b (pIC50)” value was >8.

Still in this assay, the particulars now being: negative log of half-maximal molar inhibitory concentration; 200 nM FAM-cAMP; values given as bins; read-out: PDE1b (pIC50) (converted).
As to `Cc1oc2ncnc(NC3(C)CC3)c2c1C(=O)N1CCN(c2ncc(F)cn2)CC1C` (centres unmarked) [Example 357, 5-[4-(5-Fluoropyrimidin-2-yl)-2-methylpiperazine-1-carbonyl]-6-methyl-N-(1-methylcyclopropyl)furo[2,3-d]pyrimidin-4-amine], the IC50 was 10 to 100 nM.

Take `Cc1oc2ncnc(NC3(C)CC3)c2c1C(=O)N1CCN(c2ncc(F)cn2)C(C)C1` (centres unmarked) [Example 358, 5-[4-(5-Fluoropyrimidin-2-yl)-3-methylpiperazine-1-carbonyl]-6-methyl-N-(1-methylcyclopropyl)furo[2,3-d]pyrimidin-4-amine]: the IC50 is 10 to 100 nM.

`Cc1oc2ncnc(NC3(C)CC3)c2c1C(=O)N1CCN(c2ccc(S(C)(=O)=O)cc2F)CC1` [Example 359, 5-[4-(2-Fluoro-4-methanesulfonylphenyl)piperazine-1-carbonyl]-6-methyl-N-(1-methylcyclopropyl)furo[2,3-d]pyrimidin-4-amine]: the IC50 was 10 to 100 nM.

Regarding `Cc1oc2ncnc(NC3(C)CC3)c2c1C(=O)N1CCN(c2nc(Cl)ncc2F)CC1` [Example 362, 5-[4-(2-Chloro-5-fluoropyrimidin-4-yl)piperazine-1-carbonyl]-6-methyl-N-(1-methylcyclopropyl)furo[2,3-d]pyrimidin-4-amine], the IC50 is 10 to 100 nM.

For the compound `Cc1oc2ncnc(NC3(C)CC3)c2c1C(=O)NNc1ncc(F)cn1` [Example 363, N′-(5-Fluoropyrimidin-2-yl)-6-methyl-4-[(1-methylcyclopropyl)amino]furo[2,3-d]pyrimidine-5-carbohydrazide], the IC50 is 100 to 1000 nM.

Turning to `COc1ccc(C2CCN(C(=O)c3c(C)oc4ncnc(NC5(C)CC5)c34)CC2)nn1` [Example 364, 5-[4-(6-Methoxypyridazin-3-yl)piperidine-1-carbonyl]-6-methyl-N-(1-methylcyclopropyl)furo[2,3-d]pyrimidin-4-amine], the IC50 is 10 to 100 nM.

As for `COc1ccc(CC2(NC(=O)c3c(C)oc4ncnc(NC5(C)CC5)c34)CC2)cc1` [Example 371, N-{1-[(4-Methoxyphenyl)methyl]cyclopropyl}-6-methyl-4-[(1-methylcyclopropyl)amino]furo[2,3-d]pyrimidine-5-carboxamide], the IC50 was 10 to 100 nM.

On to `Cc1oc2ncnc(NC3(C)CC3)c2c1C(=O)NC(C)(C)CF` [Example 374, N-(1-Fluoro-2-methylpropan-2-yl)-6-methyl-4-[(1-methylcyclopropyl)amino]furo[2,3-d]pyrimidine-5-carboxamide], for which the IC50 was 10 to 100 nM.

Regarding `Cc1oc2ncnc(NC3(C)CC3)c2c1C(=O)N1CCCC2(C1)C(=O)Nc1ccccc12` (centres unmarked) [Example 375, 1′-{6-Methyl-4-[(1-methylcyclopropyl)amino]furo[2,3-d]pyrimidine-5-carbonyl}-1,2-dihydrospiro[indole-3,3′-piperidine]-2-one], the IC50 was 100 to 1000 nM.

Take `Cc1oc2ncnc(NC3(C)CC3)c2c1C(=O)N1CCCC2(C1)C(=O)N(C)c1ccccc12` (centres unmarked) [Example 376, 1-Methyl-1′-{6-methyl-4-[(1-methylcyclopropyl)amino]furo[2,3-d]pyrimidine-5-carbonyl}-1,2-dihydrospiro[indole-3,3′-piperidine]-2-one]: the IC50 was 100 to 1000 nM.

For the compound `Cc1oc2ncnc(NC3(C)CC3)c2c1C(=O)N1CC(C#N)C2(C1)C(=O)Nc1ccccc12` (centres unmarked) [Example 377, 1′-{6-Methyl-4-[(1-methylcyclopropyl)amino]furo[2,3-d]pyrimidine-5-carbonyl}-2-oxo-1,2-dihydrospiro[indole-3,3′-pyrrolidine]-4′-carbonitrile], the IC50 was 10 to 100 nM.

For the compound `Cc1oc2ncnc(NC3(C)CC3)c2c1C(=O)N1CCOC2(CCc3ccccc32)C1` (centres unmarked) [Example 378, 5-({2,3-Dihydrospiro[indene-1,2′-morpholine]-4′-yl}carbonyl)-6-methyl-N-(1-methylcyclopropyl)furo[2,3-d]pyrimidin-4-amine], the IC50 is 100 to 1000 nM.

In the case of `Cc1oc2ncnc(NC3(C)CC3)c2c1C(=O)N1CCCC2(C1)OCc1ccccc12` (centres unmarked) [Example 379, 6-Methyl-N-(1-methylcyclopropyl)-5-({3H-spiro[2-benzofuran-1,3′-piperidine]-1′-yl}carbonyl)furo[2,3-d]pyrimidin-4-amine], the IC50 is 100 to 1000 nM.

The values are drawn from US20250145633A1, “SUBSTITUTED FURANOPYRIMIDINE COMPOUNDS AS PDE1 INHIBITORS” (Dart NeuroScience, LLC, priority 2017, published 2025).
